Test results reported in patent US9415007B2, “Cyanocobalamin low viscosity aqueous formulations for intranasal delivery” (PAR PHARMACEUTICAL INC., priority 2003, dated 2016).

What was measured:
[1] = Uptake of Vitamin B12 into cerebrospinal fluid after intranasal and intramuscular administration; format: in vivo, human; details: intranasal administration compared with intramuscular injections
Description: We conducted a non-blinded, single dose, parallel group study to compare the uptake of Vitamin B12 into the cerebrospinal fluid (CSF) after intranasal and intramuscular administration in healthy male and non-pregnant female volunteers. This study compared CSF levels to plasma levels produced by both formulations.
Thirty-six healthy male and non-pregnant female subjects, age 18 and over, were enrolled in the study. Eighteen subjects received a single intranasal dose of 500 mcg delivered as a 0.1 mL spray and eighteen subjects received a single intramuscular dose of 100 mcg delivered intramuscularly. Each subject visited the clinical site three times in a one-month period. These visits consisted of a screening visit, one dosing visit and a final visit.
After each dosing, each subject underwent lumbar puncture only once, with the retrieval of a total 4.0 mL of CSF (4 tubes, 1.0 mL per tube).
In addition to the above, on the day of dosing 7 mL blood samples were drawn before dosing and post dosing at 5, 10, 15 and 20 minutes, and at 0.5, 1, 1½, 2, 3, 4, 6, and 8 hours post-dose (prior to discharge).
The cerebrospinal fluid was evaluated for total Vitamin B12 content. […]
The levels of vitamin B12 were determined in both the CSF and blood serum using Vitamin B12 concentrations in the CSF will be analyzed for Qualitative determination of Vitamin B12 using a validated TOSOH Nex. […]

[2] = prior art (Merkus); not soluble at concentrations greater than; cited from earlier work

ratio of vitamin B12 (CSF) to serum, intranasal versus intramuscular [1]: higher
Substance: 5,6-dimethyl-benzimidazolyl cyanocobamide [vitamin B12]
solubility in an aqueous solution [2]: ≤ 1%
